Source: US9326506B2, “Preparation method, agricultural composition and applications of natural brassinolide analogs” (CHENGDU NEWSUN CROPSCIENCE CO., LTD, priority 2012, dated 2016)

System: rice
Test: Low temperature assay on rice seedlings
Assay type: in vivo
Protocol: According to a low temperature assay, we measured parameters including plant height, number of leaf, area of leaf, number of tiller, weight of root at low temperature to completely determine effects of the natural brassinolide analogues on the resistance to low temperature of a plant.
The natural brassinolide analogues, BR1, BR2, BR3, BR4, BR5 and BR6, used herein, were those prepared by the method of Example 1. Respectively the analogues were dissolved into 95% (V/V) ethanol solution, and then diluted with pure water to 1 mg/L, 0.1 mg/L, 0.01 mg/L, 0.001 mg/L and 0.0001 mg/L. In addition, pure water was used as a control.
After rice seeds were disinfected by using 5% sodium hypochlorite solution treatment, they were rinsed with distilled water until their pH>7, placed into a petri dish in a dark incubator, and cultured by using water at 30° C.±2° C. for 9 days. Then respectively the nine-day-old etiolated seedlings of rice were immersed in the above solutions containing different concentrations of the natural brassinolide analogues or pure water, and cultured at the temperature of 1° C., 2° C., 3° C., 4° C. and 5° C. for 24 hr. The parameters including plant height, area of leaf and weight of root after 3, 6, 9 and 12 days and number of leaf and number of tiller after 12 days were measured.

Question: For `CC(C)[C@H](C)[C@@H](O)[C@H](O)[C@@H](C)[C@H]1CCC2C3COC(=O)C4C[C@H](O)[C@H](O)C[C@]4(C)C3CC[C@@]21C` (stereo partly shown) [BR1], which Area of leaf (0.001 mg/l, 2 °C, 6 days) is on record?
Answer: 11.8 cm^2

Question: What about the Height (0.001 mg/l, 2 °C, 6 days) of the same molecule?
Answer: 7.1 cm

Question: What about the Weight of root (0.001 mg/l, 2 °C, 6 days) of the same molecule?
Answer: 3.0 g

Question: What about the Area of leaf (0.001 mg/l, 2 °C, 9 days) of the same molecule?
Answer: 12.6 cm^2

Question: What about the Height (0.001 mg/l, 2 °C, 9 days) of the same molecule?
Answer: 7.2 cm

Question: And the Weight of root (0.001 mg/l, 2 °C, 9 days)?
Answer: 3.2 g

Question: What about the Area of leaf (0.001 mg/l, 2 °C, 12 days) of the same molecule?
Answer: 13.1 cm^2

Question: And the Height (0.001 mg/l, 2 °C, 12 days)?
Answer: 7.3 cm

Question: What about the Number of leaf (0.001 mg/l, 2 °C, 12 days) of the same molecule?
Answer: 3

Question: And the Number of tiller (0.001 mg/l, 2 °C, 12 days)?
Answer: 3

Question: What about the Weight of root (0.001 mg/l, 2 °C, 12 days) of the same molecule?
Answer: 3.9 g

Question: What about the Area of leaf (0.001 mg/l, 3 °C, 3 days) of the same molecule?
Answer: 10.4 cm^2

Question: And the Height (0.001 mg/l, 3 °C, 3 days)?
Answer: 7 cm

Question: And the Weight of root (0.001 mg/l, 3 °C, 3 days)?
Answer: 2.5 g

Question: What about the Area of leaf (0.001 mg/l, 3 °C, 6 days) of the same molecule?
Answer: 12 cm^2

Question: What about the Height (0.001 mg/l, 3 °C, 6 days) of the same molecule?
Answer: 7.1 cm

Question: And the Weight of root (0.001 mg/l, 3 °C, 6 days)?
Answer: 2.6 g

Question: What about the Area of leaf (0.001 mg/l, 3 °C, 9 days) of the same molecule?
Answer: 12.6 cm^2

Question: What about the Height (0.001 mg/l, 3 °C, 9 days) of the same molecule?
Answer: 7.4 cm

Question: What about the Weight of root (0.001 mg/l, 3 °C, 9 days) of the same molecule?
Answer: 2.9 g

Question: And the Area of leaf (0.001 mg/l, 3 °C, 12 days)?
Answer: 13.2 cm^2

Question: What about the Height (0.001 mg/l, 3 °C, 12 days) of the same molecule?
Answer: 7.3 cm

Question: And the Number of leaf (0.001 mg/l, 3 °C, 12 days)?
Answer: 3

Question: What about the Number of tiller (0.001 mg/l, 3 °C, 12 days) of the same molecule?
Answer: 2

Question: What about the Weight of root (0.001 mg/l, 3 °C, 12 days) of the same molecule?
Answer: 2.9 g

Question: And the Area of leaf (0.001 mg/l, 4 °C, 3 days)?
Answer: 10.6 cm^2

Question: And the Height (0.001 mg/l, 4 °C, 3 days)?
Answer: 7.1 cm

Question: And the Weight of root (0.001 mg/l, 4 °C, 3 days)?
Answer: 2.5 g

Question: What about the Area of leaf (0.001 mg/l, 4 °C, 6 days) of the same molecule?
Answer: 12.4 cm^2

Question: What about the Height (0.001 mg/l, 4 °C, 6 days) of the same molecule?
Answer: 7.3 cm

Question: And the Weight of root (0.001 mg/l, 4 °C, 6 days)?
Answer: 2.6 g

Question: And the Area of leaf (0.001 mg/l, 4 °C, 9 days)?
Answer: 13.1 cm^2

Question: What about the Height (0.001 mg/l, 4 °C, 9 days) of the same molecule?
Answer: 7.5 cm

Question: What about the Weight of root (0.001 mg/l, 4 °C, 9 days) of the same molecule?
Answer: 2.9 g

Question: What about the Area of leaf (0.001 mg/l, 4 °C, 12 days) of the same molecule?
Answer: 13.5 cm^2

Question: And the Height (0.001 mg/l, 4 °C, 12 days)?
Answer: 7.7 cm

Question: And the Number of leaf (0.001 mg/l, 4 °C, 12 days)?
Answer: 3

Question: And the Number of tiller (0.001 mg/l, 4 °C, 12 days)?
Answer: 2

Question: And the Weight of root (0.001 mg/l, 4 °C, 12 days)?
Answer: 2.9 g

Question: What about the Area of leaf (0.001 mg/l, 5 °C, 3 days) of the same molecule?
Answer: 10.7 cm^2

Question: And the Height (0.001 mg/l, 5 °C, 3 days)?
Answer: 7.5 cm

Question: What about the Weight of root (0.001 mg/l, 5 °C, 3 days) of the same molecule?
Answer: 2.8 g

Question: And the Area of leaf (0.001 mg/l, 5 °C, 6 days)?
Answer: 14.6 cm^2

Question: And the Height (0.001 mg/l, 5 °C, 6 days)?
Answer: 7.7 cm

Question: What about the Weight of root (0.001 mg/l, 5 °C, 6 days) of the same molecule?
Answer: 2.9 g

Question: And the Area of leaf (0.001 mg/l, 5 °C, 9 days)?
Answer: 16.4 cm^2

Question: And the Height (0.001 mg/l, 5 °C, 9 days)?
Answer: 7.9 cm

Question: And the Weight of root (0.001 mg/l, 5 °C, 9 days)?
Answer: 3.0 g

Question: What about the Area of leaf (0.001 mg/l, 5 °C, 12 days) of the same molecule?
Answer: 17 cm^2

Question: What about the Height (0.001 mg/l, 5 °C, 12 days) of the same molecule?
Answer: 8.2 cm

Question: And the Number of leaf (0.001 mg/l, 5 °C, 12 days)?
Answer: 3

Question: What about the Number of tiller (0.001 mg/l, 5 °C, 12 days) of the same molecule?
Answer: 3

Question: And the Weight of root (0.001 mg/l, 5 °C, 12 days)?
Answer: 3.7 g

Question: What about the Area of leaf (0.01 mg/l, 1 °C, 3 days) of the same molecule?
Answer: 10.1 cm^2

Question: And the Height (0.01 mg/l, 1 °C, 3 days)?
Answer: 6.9 cm

Question: And the Weight of root (0.01 mg/l, 1 °C, 3 days)?
Answer: 2.8 g

Question: What about the Area of leaf (0.01 mg/l, 1 °C, 6 days) of the same molecule?
Answer: 11.9 cm^2

Question: And the Height (0.01 mg/l, 1 °C, 6 days)?
Answer: 7.2 cm

Question: And the Weight of root (0.01 mg/l, 1 °C, 6 days)?
Answer: 3.0 g

Question: What about the Area of leaf (0.01 mg/l, 1 °C, 9 days) of the same molecule?
Answer: 12.9 cm^2

Question: What about the Height (0.01 mg/l, 1 °C, 9 days) of the same molecule?
Answer: 7.3 cm

Question: And the Weight of root (0.01 mg/l, 1 °C, 9 days)?
Answer: 3.4 g

Question: And the Area of leaf (0.01 mg/l, 1 °C, 12 days)?
Answer: 13.6 cm^2

Question: What about the Height (0.01 mg/l, 1 °C, 12 days) of the same molecule?
Answer: 7.4 cm

Question: What about the Number of leaf (0.01 mg/l, 1 °C, 12 days) of the same molecule?
Answer: 3

Question: And the Number of tiller (0.01 mg/l, 1 °C, 12 days)?
Answer: 3

Question: What about the Weight of root (0.01 mg/l, 1 °C, 12 days) of the same molecule?
Answer: 3.9 g

Question: And the Area of leaf (0.01 mg/l, 2 °C, 3 days)?
Answer: 10.3 cm^2

Question: What about the Height (0.01 mg/l, 2 °C, 3 days) of the same molecule?
Answer: 6.9 cm

Question: And the Weight of root (0.01 mg/l, 2 °C, 3 days)?
Answer: 2.8 g

Question: And the Area of leaf (0.01 mg/l, 2 °C, 6 days)?
Answer: 11.8 cm^2

Question: And the Height (0.01 mg/l, 2 °C, 6 days)?
Answer: 7.2 cm

Question: And the Weight of root (0.01 mg/l, 2 °C, 6 days)?
Answer: 3.0 g

Question: What about the Area of leaf (0.01 mg/l, 2 °C, 9 days) of the same molecule?
Answer: 12.8 cm^2

Question: And the Height (0.01 mg/l, 2 °C, 9 days)?
Answer: 7.3 cm

Question: What about the Weight of root (0.01 mg/l, 2 °C, 9 days) of the same molecule?
Answer: 3.1 g

Question: What about the Area of leaf (0.01 mg/l, 2 °C, 12 days) of the same molecule?
Answer: 13.4 cm^2

Question: And the Height (0.01 mg/l, 2 °C, 12 days)?
Answer: 7.5 cm

Question: What about the Number of leaf (0.01 mg/l, 2 °C, 12 days) of the same molecule?
Answer: 3

Question: What about the Number of tiller (0.01 mg/l, 2 °C, 12 days) of the same molecule?
Answer: 3

Question: What about the Weight of root (0.01 mg/l, 2 °C, 12 days) of the same molecule?
Answer: 3.2 g

Question: What about the Area of leaf (0.01 mg/l, 3 °C, 3 days) of the same molecule?
Answer: 10.4 cm^2

Question: What about the Height (0.01 mg/l, 3 °C, 3 days) of the same molecule?
Answer: 7 cm

Question: And the Weight of root (0.01 mg/l, 3 °C, 3 days)?
Answer: 2.5 g

Question: What about the Area of leaf (0.01 mg/l, 3 °C, 6 days) of the same molecule?
Answer: 12 cm^2

Question: And the Height (0.01 mg/l, 3 °C, 6 days)?
Answer: 7.2 cm

Question: And the Weight of root (0.01 mg/l, 3 °C, 6 days)?
Answer: 2.6 g

Question: What about the Area of leaf (0.01 mg/l, 3 °C, 9 days) of the same molecule?
Answer: 12.6 cm^2
